This is an account of results in publication PMC7735645 (Journal of the American Chemical Society, 2019).

In data set [1] the test system is A549 cells. The data set can be described thus: NPM1 relocalization. The data set is classed as cell-based. The note with it: for NPM1 redistribution: free ligand alone, Figures S2 and S3.
The nature of data set [2]: water/octanol partition coefficient. The data set is classed as physicochemical.
In data set [3] the test system is A549 cells. Description: 24 h IC50. The note with it: read-out: 24 h IC50 value, Table S1. Type of data set: cell-based.
Another data set deals with DNA damage. The data set can be described thus: DNA damage in treated cells. Type of data set: cell-based. The settings on record: early time points, unpublished data from the authors' lab.
[4] abbreviates: A549 cells, 24 h treatment, 10 μM.

Regarding `NC1CCCCC1N.[Cl][Pt][Cl]` (stereo not drawn) [compound 4, DACHPt], the “NPM1 redistribution / nucleolar stress induction” value in the data set with A549 cells [1] (setting [4]) is given as “induces robust nucleolar stress”. For the same compound, the “relative hydrophobicity (water/octanol partition coefficient, log P)” value in data set [2] is listed as “more hydrophobic than the simpler diam(m)ine compounds”. Broadly, the IC50 is the concentration at which inhibition is half-maximal. Consider `O=C1[O][Pt]2([NH][C@@H]3CCCC[C@H]3[NH]2)[O]C1=O` [compound 2, oxaliplatin, reference compound], for which the “NPM1 redistribution / nucleolar stress induction” value in the data set on A549 cells [1] (setting [4]) was “induces robust redistribution of NPM1”; in the data set on A549 cells [1] (A549 cells, 24 h treatment, 10 μM, listed as Oxaliplatin), “robust NPM1 relocalization”. Moreover, the half-maximal inhibitory concentration (IC50) in the data set with A549 cells [3] worked out at 81.5 µM. Moreover, the “DNA damage relative to NPM1 relocation” value in the data set on DNA damage is “no such damage occurs prior to observed NPM1 distribution”. As to Pentaplatin [compound 9], in the data set with A549 cells [1] (setting [4]), the “NPM1 redistribution / nucleolar stress induction” value is reported as “found to induce nucleolar stress” and the “coefficient of variation (CV) of NPM1 intensity” value is on record as “slightly higher resultant CV than positive controls or oxaliplatin”. As for `N.N.[Cl][Pt][Cl]` [compound 1, cisplatin, reference compound], the “NPM1 redistribution / nucleolar stress induction” value was “more closely resembles that of the no-treatment control” in the data set with A549 cells [1] (setting [4]) and “a small amount of NPM1 redistribution was observed” in the data set on A549 cells [1] (A549 cells, 24 h treatment, 10 μM, listed as cisplatin). For the same compound, the “DNA damage relative to NPM1 relocation” value with DNA damage is on record as “DNA damage occurs at early time points”.

For the compound `[NH2][Pt]1([NH2])[O]C(=O)C2(CCC2)C(=O)[O]1` [compound 3, carboplatin, reference compound], the “NPM1 redistribution / nucleolar stress induction” value in the data set with A549 cells [1] (setting [4]) was “more closely resembles that of the no-treatment control”. Take `N.N.O=C([O-])C(=O)[O-].[Pt+2]` [compound 5, DOAP]: the “NPM1 redistribution / nucleolar stress induction” value with A549 cells [1] (setting [4]) is given as “does not induce stress”. `NC1CCCCC1N` (stereo not drawn) [DACH ligand, diaminocyclohexane, reference compound]: the NPM1 redistribution result in the data set on A549 cells [1] is reported as “no influence on NPM1 redistribution”. Turning to `O=C(O)C(=O)O` [oxalic acid ligand, oxalic acid, reference compound], in the data set with A549 cells [1], the NPM1 redistribution entry was “no influence on NPM1 redistribution”.
